Experiments:
[1] = system: porcine aortic smooth muscle cells; assay: Inhibition of serum-stimulated porcine aortic smooth muscle cell proliferation (3H-thymidine); assay type: cell-based; settings: Sus scrofa, 24-36 hours at 37° C., assayed at 1, 10, and 100 μM, read-out: Porcine Smooth Muscle Cell Antiproliferation IC50 or % Inhibition at × Concentration, Serum
Description: (§1) The ability of the compounds of the present invention to inhibit smooth muscle cell proliferation was established using isolated porcine aortic smooth muscle cells in a modification of the procedure of Castellot et al. J. Biol. Chem 257(19) 11256 (1982), as follows:
(§2) Fresh porcine aortas, scrupulously cleansed of fatty tissue, are rinsed in sterile phosphate-buffered saline with 2% antibiotic-antimycotic (100×) liquid (10,000 units of penicillin (base), 10,000 μg of streptomycin (base), and 25 μg of amphotericin B/mL utilizing penicillin G (sodium salt), streptomycin sulfate, and amphotericin B as Fungizone® in 0.85% saline, available from Gibco Laboratories, Grand Island Biological Co., Grand Island, N.Y.). The tissue is then digested in 10-15 mL of an enzyme solution containing collagenase type I, 165 U/mL; elastase type III, 15 U/mL; BSA, 2 mg/mL; and soybean trypsin inhibitor, 0.375 mg/mL, followed by incubation at 37° C. under 5% CO2 atmosphere for 10 to 15 minutes. After this treatment, the outer surface adventitia is removed by peeling with a forceps. The aorta is then longitudinally cut and laid open and the endothelial layer is removed by scraping.
(§3) The medial layer of cells is rinsed in the enzyme solution, and placed in a new 100 mm dish with 10 mL of enzyme solution. The medial layer of cells is minced using a fine pair of scissors and digested for 2-3 hours at 37° C. in 30 mL of fresh enzyme solution. After digestion, the medial tissue is homogenized using a sterile Pasteur pipette with a fire polished tip or an Eppendorf pipetter with a 200-1000 μL sterile pipette tip. The suspension is then centrifuged for 10 minutes at 8000 rpm and the pellet is suspended in 4-6 mL of fresh enzyme solution and plated onto 4-6 100 mm flasks with vented caps. The cells are then allowed to grow to confluence and split using 0.25% trypsin. The cells are evaluated for purity and overall quality using antibody to SMC actin.
(§4) The cells are assayed in early passage (generally passage 3-7) at sub-confluent conditions. Cultures are grown in 16 mm (24 well) multi-well culture dishes in media 199 supplemented with 10% fetal bovine serum and 2% antibiotic/antimycotic. At subconfluence, the cells are placed in a defined serum free, lymphocyte medium (AIM-V; Gibco) for 24-48 hours prior to initiating the experimental protocol.
(§5) The standard test procedure is initiated by addition of the test compound, ^3 H-thymidine and serum or a specific growth factor to the serum deprived synchronized cells. Growth factor and serum stimulations are optimized for each cell type. The test compounds are added to each well at 50 fold dilution (20 μL/well) and the plates are incubated for 24-36 hours at 37° C. in 5% CO2 atmosphere. Test compounds are dissolved in 50% ethanol and assayed at 1, 10, and 100 μM. As a control, RG 50872 (Bilder, G. A.; et al., Am. J. Cell Physiol., 1991; 260: C721) is routinely assayed under the conditions of each cell preparation at a concentration of 5 μM.
(§6) At the completion of the experiment, the plates are placed on ice, washed three times with ice cold PBS and incubated in ice cold 10% trichloroacetic acid (TCA) for 30 minutes to remove acid soluble proteins. […]
(§7) Data is quantitated by subjecting the vials to a scintillation counter, in triplicate, for both control and experimental samples. […] Data is expressed as a percent of control from which IC50 s are determined.

[2] = system: porcine aortic smooth muscle cells; assay: Inhibition of PDGF-stimulated porcine aortic smooth muscle cell proliferation (3H-thymidine); assay type: cell-based; settings: Sus scrofa; stimulated with human recombinant PDGF-AB; 24-36 hours at 37° C.; assayed at 1, 10, and 100 μM; read-out: Porcine Smooth Muscle Cell Antiproliferation IC50 or % Inhibition at × Concentration, PDGF
Description: as §1, §2, §3, §4, §5, §6, §7

[3] = Cytotoxicity, commercial modification of the MTT assay; assay type: cell-based, porcine; settings: pig, smooth muscle cells, medium without serum, 24 hours at 37° C., no drug = 100% viable
Description: To distinguish cytotoxicity from the ability of a compound to prevent proliferation, the test compounds were examined using a commercial modification of the MTT assay. Briefly, cells were grown in 24 well plates to 70-80% confluency. The cells were serum deprived for 24-48 hours prior to initiation of the experimental protocol. To insure that the MTT assay monitored toxicity rather than proliferation, the cells were incubated with […] test compound in fresh medium without serum for 24 hours at 37° C. in a humidified CO2 incubator. Upon completion of the compound treatment, MTT indicator dye was added for 4 hours at 37° C. Cells were then solubilized and aliquots from each well were transferred to a 96-well plate for analysis. Absorbance at 570 nm wavelength with a reference wavelength of 630 nm was recorded using an ELISA plate reader. Results are reported as percent viable using no drug (100% viable) and pre-solubilization (0% viable) standards.

Compound | IC50 [1] | IC50 [2] | viability at 24 h [3]
Fc1cc2[nH]c(SCc3ccc(Cl)c(Cl)c3)nc2cc1Cl [Example 1, 5(6)-Chloro-2-(3,4-dichlorobenzylsulfanyl)-6(5)-fluoro-1H-benzoimidazole] | 23.3 µM | 0.06 to 0.61 µM | 100%
O=[N+]([O-])c1ccc2[nH]c(SCc3ccc(Cl)c(Cl)c3)nc2c1 [Example 2, 2-(3,4-Dichlorobenzylsulfanyl)-5-nitro-1H-benzoimidazole] | 10 µM | 0.12 to 1 µM | 100%
Clc1ccc(CSc2nc3ccccc3[nH]2)cc1Cl [Example 3, 2-(3,4-Dichlorobenzylsulfanyl)-1H-benzoimidazole] | 12.1 µM | 4.4 µM | 100%
COC(=O)c1ccc(CSc2nc3ccccc3[nH]2)cc1 [Example 4, 4-(1H-Benzoimidazol-2-ylsulfanylmethyl)-benzoic acid methyl ester] | 1.53 µM | 3.74 µM | 100%
COC(=O)c1ccc(CSc2nc3cc([N+](=O)[O-])ccc3[nH]2)cc1 [Example 5, 4-(5-Nitro-1H-benzoimidazol-2-ylsulfanylmethyl)-benzoic acid methyl ester] | 18.2 µM | 6.17 µM | 100%

— patent US5684030A, “2-substituted benzimidazole derivatives” (American Home Products Corporation, priority 1995, dated 1997)
